Patent publication US12637472B2, “Benzimidazole heteroatom-containing spiro compound and medicinal use thereof” (Changzhi University, priority 2023, dated 2026)

Columns and labels:
Format in all cases: cell-based
[1] = test system: Human liver tumor cells HepG2; assay: MTT in vitro cell proliferation inhibition experiment, HepG2; conditions: MTT method, 48 h contact between compound and cell, read-out: Antiproliferative activity (IC50, μM) HepG2
Description: (§1) Human liver tumor cells HepG2, human colon cancer cells HCT116, and human gastric adenocarcinoma cells AGS were purchased from the Institute of Basic Medical Sciences, Chinese Academy of Medical Sciences. The cells each were preserved and passaged in the laboratory of the present disclosure according to respective cultivation data. Each cell line was routinely inoculated in a 50 mL cell culture flask, and cultivated with a 10% fetal bovine serum-containing DMEM/IRP-1640 medium at 37° C., 5% CO2, and 100% humidity, where the medium was changed daily. When growing to a confluency of 80% to 90%, cells were digested with a mixture of trypsin and EDTA and passaged according to 1:3.
(§2) An in vitro cell activity and proliferation inhibition experiment was conducted by an MTT method to investigate an impact of a target compound on a survival activity of each cell. Cells at a logarithmic growth phase were inoculated at 5×10^3 cells (100 μL)/well in a 96-well culture plate and cultivated for 24 h, and then compound solutions with different concentrations prepared in advance were added (100 μL) to the plate. At least 3 replicate wells were set for each concentration. A solvent control group without a compound and a blank control group without a cell were set. Edge wells each were filled with 200 μL of sterilized water. […] A liquid in each well was completely removed carefully, 150 μL of DMSO was added to each well, the plate was gently shaken on a microshaker for 10 min to make a purple crystal fully dissolved, and then an absorbance value was determined at 570 nm by a microplate reader. With a cell viability of the solvent control group without a compound as 100%, a cell survival rate was calculated as follows: a cell survival rate=(an absorbance value of a compound group−an absorbance value of the blank control group)/(an absorbance value of the control group−an absorbance value of the blank control group)×100%. A half-maximal inhibitory concentration (IC50) of a compound for a cell was calculated by the Graphpad Prism 5 software.

[2] = test system: human colon cancer cells HCT116; assay: MTT in vitro cell proliferation inhibition experiment, HCT116; conditions: MTT method, 48 h contact between compound and cell, read-out: Antiproliferative activity (IC50, μM) HCT116
Description: as §1, §2

[3] = test system: human gastric adenocarcinoma cells AGS; assay: MTT in vitro cell proliferation inhibition experiment, AGS; conditions: MTT method, 48 h contact between compound and cell, read-out: Antiproliferative activity (IC50, μM) AGS
Description: as §1, §2

IC50 [1]: 11 µM
IC50 [2]: 21.7 µM
IC50 [3]: 21.4 µM
Structure (SMILES): COc1ccc(C2=N[C@@H](c3ccc(Cl)cc3)[C@@H](c3ccc(Cl)cc3)N2C(=O)N2CCNC(=O)C2)c(OC(C)C)c1 [Nutlin-3a, reference compound]
